Laboratory results as given in patent US20130336988A1, “METHODS FOR TREATING EARLY STAGE OR MILD NEUROLOGICAL DISORDERS” (NEW YORK UNIVERSITY, priority 2010, published 2013).

Experiments:
[1] = system: E15 DIV3 mouse hippocampal neurons; test: proNT-induced growth cone collapse in cultured hippocampal neurons (live imaging and immunofluorescence); assay type: cell-based; conditions: for growth cone collapse: p75NTR-positive cells, 20 min exposure, 10 ng/ml proNGF, 10 ng/ml proBDNF with K252a, 5 ng/ml NGF
Experimental: To assay which pathways are involved in filopodial collapse, 5-10 ng/ml proNGF, 10 ng/ml proBDNF, 25-50 ng/ml BDNF (Peprotech) or 25-100 ng/ml NGF (Harlan) was added to E15 primary hippocampal neurons for 20 min before fixation. In some cases, cells were pretreated with 100 nM K-252a (Calbiochem) for 20 min, 100 nM Gö6976 (Calbiochem) for 1 hour, 5 μM EHT1864 (Sigma) for 30 min or 100 nM ITX3 (ChemBridge Corporation, cat. no. 6007262) for 45 min. To block SorCS2, cells were incubated with 20 μg/ml anti-SorCS2 or control IgG for 20 min on ice before proNGF addition at 37° C.
DIV3 hippocampal neurons were fixed in 4% paraformaldehyde/20% sucrose for 10 min. The fixative was quenched with 50 mM NH4Cl in PBS for 5 min and cells were permeabilized with 0.1% TritonX-100 in PBS for 2 min. Alternatively, cells were fixed with ice-cold methanol for 5 min. Coverslips were blocked with 10% normal donkey serum, 2% bovine serum albumin and 0.25% fish skin gelatin in Tris-buffered saline for 30 min, incubated with primary antibodies diluted in blocking solution for 30 min, washed three times with Tris-buffered saline/0.25% fish skin gelatin, incubated with secondary antibodies mixed with Hoechst in blocking buffer for additional 30 min, washed and mounted using Mowio1488. Cells were imaged using a LSM510 laser-scanning confocal microscope equipped with a 40× Plan Neofluor NA1.3 DIC oil-immersion objective (Carl Zeiss Microimaging). Images were processed using LSM510 software (Zeiss) and ImageJ (NIH).
Cells were plated on gridded glass bottom dishes (MatTek Corporation) and imaged at DIV3 in phenol red-free Neurobasal medium (Invitrogen) supplemented with 30 mM HEPES-NaOH, pH7.4 using an Olympus IX71 inverted microscope driven by IPLab software (BD Biosciences) and equipped with a 60× PlanApoN objective (NA 1.42), a Hamamatsu EM-CCD camera and a heated stage maintained at 37° C., or driven by softWoRX software (version 3.7.1, DeltaVision), and equipped with a CoolSnap HQ2 camera (Photometrics) and an environmental chamber maintained at 37° C. Images were taken every 15 seconds. After live imaging cells were fixed, counterstained for p75, located by grid number and examined for p75 expression. All movies were exported and processed using IPLab (BD Biosciences), softWoRX (version 3.7.1, DeltaVision) and ImageJ (NIH) software. Filopodia length and speed were both analyzed using ImageJ (NIH) software. For this, two times ten consecutive frames, spaced 5-10 min apart, were analyzed before and again after treatment. In the length analysis, a line was drawn along an individual filopodium and measured at every time point, and the measurements were averaged before and after treatment. For the speed analysis, the filopodial tip was tracked using the ImageJ Manual Tracking plugin. Up to four individual filopodia were analyzed per movie, and a minimum of four movies taken from separate experiments were analyzed per condition.
Primary hippocampal and cortical neurons were isolated from E15 C57BL/6 mouse embryos as previously described (PEREIRA, D. B. et al., Journal of Neuroscience 27:4859-4869 (2007)). Briefly, neurons were dissociated by incubation with 0.05% trypsin at 37° C. for 8 min followed by trituration with fire-polished glass Pasteur pipettes. Cells were plated on poly-D-lysine coated dishes and grown in Neurobasal medium containing B27, 0.5 mM glutamine (all Invitrogen) and 10 μM 5-fluorodeoxyuridine. Hippocampal neurons were transfected at DIV2 using Lipofectamine2000 (Invitrogen). For coverslips in a 24-well plate, 0.5 μg plasmid were mixed with 0.5 μl Lipofectamine2000, and for glass bottom dishes, 1.5 μg plasmid were mixed with 1.5 μl Lipofectamine2000. The complexes were added to the cells for 30-45 min, and then neurons were placed back into preconditioned media until analysis the following day. […]

SorCS2 = target: T1, SorCS2 (Homo sapiens, UniProt Q96PQ0); test: Co-immunoprecipitation of proNT with SorCS2 in transfected 293 cells; assay type: binding; conditions: 293 cells co-transfected with proNT and myc-SorCS2; IP-Western blot
T1 construct: expressed in transfected cells; host or cells: HEK 293 cells (proBDNF) / 293T cells (proNGF)
Experimental: FIG. 2A-G. ProNTs induce growth cone collapse. (A, B) DIV3 hippocampal neurons transfected with LifeAct-RFP were imaged by time-lapse microscopy before (top panel) and starting approximately 2 min after (bottom panel) treatment with proBDNF (A) or proNGF (B). Actin dynamics stalled upon proNT treatment and subsequently the growth cone collapsed. Time is indicated in (min:sec). Scale bars, 10 μm. (C, D) DIV3 hippocampal cultures were fixed and stained for p75^NTR (C) and SorCS2 (D). Arrows highlight growth cones. Scale bars, 20 μm. (E) Brain sections from 6-week old C57/BL6 mice were stained for SorCS2. DG, dentate gyrus. Arrows highlight expression in dentate granule dendrites. Scale bar, 200 μm. (F) Both sortilin and SorCS2 interact with proBDNF. HEK 293 cells were transfected with proBDNF-HA and myc-sortilin or mycSorCS2, lysates were immunoprecipitated with anti-HA agarose and analyzed by Western blot with indicated antibodies. (G) IP-WB from 293T cells showing interactions between proNGF and sortilin and SorCS2.
The LifeAct sequence (RIEDL, J. et al., Nat Methods 5:605-607 (2008)) was cloned into the pEGFP-N1 backbone (Clontech) using the BglII and BamHI restriction sites. Trio constructs were described previously (FERRARO, F. et al., Mol Biol Cell 18:4813-4825 (2007)), human sortilin cDNA or human SorCS2 cDNA was subcloned into the pcDNA3.1 hygro expression vector (Invitrogen). […]

T1 sequence (Q96PQ0 51-1159): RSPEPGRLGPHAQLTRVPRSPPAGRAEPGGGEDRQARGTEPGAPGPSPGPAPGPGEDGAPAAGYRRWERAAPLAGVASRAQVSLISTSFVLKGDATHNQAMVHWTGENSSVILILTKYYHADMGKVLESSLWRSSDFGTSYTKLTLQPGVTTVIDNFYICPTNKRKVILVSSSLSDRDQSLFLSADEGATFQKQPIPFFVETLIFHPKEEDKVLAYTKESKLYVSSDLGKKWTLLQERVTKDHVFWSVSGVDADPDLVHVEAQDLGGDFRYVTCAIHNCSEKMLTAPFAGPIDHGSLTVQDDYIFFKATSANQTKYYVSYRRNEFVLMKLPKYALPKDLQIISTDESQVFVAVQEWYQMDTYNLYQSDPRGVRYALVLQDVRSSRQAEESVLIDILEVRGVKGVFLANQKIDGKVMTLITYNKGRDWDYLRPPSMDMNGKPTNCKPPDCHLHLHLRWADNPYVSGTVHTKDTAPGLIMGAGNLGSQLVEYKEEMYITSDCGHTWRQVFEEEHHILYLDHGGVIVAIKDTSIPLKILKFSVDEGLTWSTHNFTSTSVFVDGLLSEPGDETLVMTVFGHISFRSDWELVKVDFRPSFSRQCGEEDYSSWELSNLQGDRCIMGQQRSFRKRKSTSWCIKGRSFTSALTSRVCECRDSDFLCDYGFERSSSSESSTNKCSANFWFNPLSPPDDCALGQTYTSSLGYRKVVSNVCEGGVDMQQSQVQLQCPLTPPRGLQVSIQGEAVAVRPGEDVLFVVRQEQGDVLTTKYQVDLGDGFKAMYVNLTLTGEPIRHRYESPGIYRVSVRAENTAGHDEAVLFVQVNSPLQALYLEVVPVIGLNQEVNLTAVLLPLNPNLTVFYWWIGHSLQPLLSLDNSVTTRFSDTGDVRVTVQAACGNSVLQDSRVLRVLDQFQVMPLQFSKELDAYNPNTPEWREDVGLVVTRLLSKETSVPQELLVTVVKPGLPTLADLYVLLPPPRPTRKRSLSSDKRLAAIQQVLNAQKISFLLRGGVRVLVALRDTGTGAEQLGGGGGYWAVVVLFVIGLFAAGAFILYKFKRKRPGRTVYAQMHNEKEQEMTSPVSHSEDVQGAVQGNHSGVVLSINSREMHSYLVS

| Molecule | growth cone collapse in neurons from p75NTR-/- mice ([1]; live imaging of LifeAct-RFP transfected neurons from p75 null mice (not shown)) | localisation of endogenous Trio ([1]; p75NTR-positive E15 DIV3 hippocampal neurons, immunostaining) | growth cone collapse [1] | interaction with SorCS2 (co-immunoprecipitation) (SorCS2) |
| --- | --- | --- | --- | --- |
| proNGF: proneurotrophin precursor of nerve growth factor, produced in Sf9 cells and purified | growth cone collapse was never observed | redistribution of Trio along the neuritis | comparable in inducing growth cone collapse | co-immunoprecipitated with both sortilin and SorCS2 |
| proBDNF: murine proBDNF collected from supernatants of transfected 293 cells (protein) APMKEVNVHGQGNLAYPGVRTHGTLESVNGPRAGSRGLTTTSLADTFEHVIEELLDEDQKVRPNEENHKDADLYTSRVMLSSQVPLEPPLLFLLEEYKNYLDAANMSMRVRRHSDPARRGELSVCDSISEWVTAADKKTAVDMSGGTVTVLEKVPVSKGQLKQYFYETKCNPMGYTKEGCRGIDKRHWNSQCRTTQSYVRALTMDSKKRIGWRFIRIDTSCVCTLTIKRGR |  |  | comparable in inducing growth cone collapse | interact |
